This assay concerns HeLa cells. Kind of assay: Evaluation of cell-penetrating function by flow cytometry (mean fluorescent intensity). As to conditions: for MFI (mean fluorescent intensity of measurement target cell populations): 10 μM final concentration, 20-hour incubation at 37° C., 0.5% DMSO, flow cytometer FL2, 10,000 cells. Format: cell-based, human. The method, then:
HeLa cells (established cell lines derived from human cervical cancer cells) were used as eukaryotic cells, and cell-penetrating functions of three samples (constructs for introducing a foreign substance) obtained in Example 1 were examined
In this example, Examples 1 to 3 were set according to the kind of peptide used as shown below. In addition, as Examples 4 and 5, peptide-free groups were set. The following test was performed in a total of 5 categories. Here, the concentration described below was a final concentration during the following 20-hour incubation.
Here, in all of the examples, the concentration of DMSO was adjusted to 0.5% during the following 20-hour incubation. In addition, the number of test wells (n) in each of the above examples was set to 3.
HeLa cells were cultured using a mixed solution containing a 90% Eagle's MEM medium (containing 0.1% non-essential amino acid, 2 mM of L-glutamine, 1 mM of sodium pyruvate, and 1.5 g/L of sodium bicarbonate) and 10% serum (FBS: fetal bovine serum) as a culture solution.
The HeLa cells were subjected to a trypsin treatment with a 0.25% trypsin/EDTA solution at 37° C. for 3 minutes. After the above treatment, trypsin was inactivated using the culture solution. Centrifugation was performed and the centrifugal supernatant was removed. The cell pellet obtained by centrifugation was suspended in a fresh culture solution. A cell suspension (sample for introducing a foreign substance) having a cell concentration of about 1×10^5 cells/well was prepared from the culture solution, and 2 ml thereof was seeded in each well of a commercially available 6-well plate (commercially available from Iwaki). Then, the cells were cultured at 37° C. for 4 hours under 5% CO2 conditions, and adhesion of the seeded cells was confirmed.
Then, 1 ml of the culture supernatant was removed from the well after the culture for 4 hours, and a culture solution containing Sample 1 at a concentration of 20 μM was added. That is, the final sample concentration in the well was 10 μM.
The plate was then incubated at 37° C. for 20 hours under 5% CO2 conditions.
After such incubation for 20 hours, the cells were washed twice with PBS at 1 ml/well. Then, the cells in the wells were treated with a 0.25% trypsin/EDTA solution at 200 μL/well at 37° C. for 3 minutes. Then, a culture solution at 400 μL/well was additionally added and the cells were collected in the tube. Then, the wells were additionally washed with PBS at 600 μL/well, and the cells remaining in the wells were collected in the above tube. The tube was centrifuged at 4° C. for 5 minutes under 210×g conditions. The centrifugal supernatant was removed, and the cell pellet was suspended (washed) in 1 ml PBS, and centrifuged under the same conditions as above. This operation was repeated twice.
Then, the collected cells were analyzed using a flow cytometer. […]
Using the above flow cytometer, gating was performed based on forward scatter (FSC) and side scatter (SSC), and a gate was set for a measurement target cell population. Then, the fluorescent intensity of the cell population within such a gate was measured. The fluorescent intensity of 10,000 measurement target cells was measured for each measurement sample. […] The measurement results were analyzed using commercially available analysis software “FlowJo (registered trademark)” (commercially available from TreeStar), and a mean fluorescent intensity (MFI) of measurement target cell populations was obtained. […]
For orientation: A flow cytometer gives signals particle by particle.

Non-standard residues stand in square brackets, D forms with d. No end group written: not given here. FAM = fluorescent dye label; Ahx = NCCCCCC(=O)O; βAla = NCCC(=O)O

As for “RXRRBRRXRYQFLIRXRBRXRB-FAM (R[Ahx]RR[βAla]RR[Ahx]RYQFLIR[Ahx]R[βAla]R[Ahx]R[βAla]-{FAM}) [Example 3, X aminohexanoic acid, B β-alanine]”, the “MFI (mean fluorescent intensity of measurement target cell populations)” value is 4.0 × 10^2.

As to 5(6)-Carboxyfluorescein [Example 4], the “MFI (mean fluorescent intensity of measurement target cell populations)” value is reported as 9.7.

Consider “FAM-KKRTLRKNDRKKR-CONH2 ({FAM}-KKRTLRKNDRKKR-NH2) [Example 2]”, for which the “MFI (mean fluorescent intensity of measurement target cell populations)” value was found to be 24.

As for “FAM-TLKERCLQVVRSLVKKKRTLRKNDRKKR-CONH2 ({FAM}-TLKERCLQVVRSLVKKKRTLRKNDRKKR-NH2) [Example 1]”, the “MFI (mean fluorescent intensity of measurement target cell populations)” value was 8.2 × 10^2. The “cell permeability (comparison of MFI among samples)” value (10 μM, 20-hour incubation) is given as “the best”.

The values are drawn from US20220008547A1, “Carrier Peptide Fragment and use Thereof” (TOAGOSEI CO., LTD, priority 2020, published 2022).
